Patent US20130317056A1, “NEURONAL NICOTINIC AGONISTS AND METHODS OF CORRELATING COMT SNPS” (ABBVIE INC., priority 2012, published 2013)

Tests used:
Assay type in all cases: in vivo, human
[1] = system: clinically stable subjects with schizophrenia; test: UCSD Performance-Based Skills Assessment-2 (UPSA-2), Clinical Study A
Source text: (§1) A Phase 2a proof-of-concept (POC) study in clinically stable subjects with schizophrenia who were clinically stable and received stable doses of atypical antipsychotic therapy. The study was a Phase 2, multi-center, randomized, double-blind, placebo-controlled, parallel group study designed to evaluate the safety and efficacy of doses of (4s)-4-(5-phenyl-1,3,4-thiadiazol-2-yloxy)-1-azatricyclo[3.3.1.1^3,7]decane (Compound A) in clinically stable male and female subjects (ages 20 to 55, inclusive) with a Diagnostic and Statistical Manual of Mental Disorders—Fourth Edition, Text Revision (DSM-IV-TR) diagnosis of schizophrenia. Psychiatric diagnoses were confirmed using the Mini-International Neuropsychiatric Interview (MINI) version 6.0.0. The criteria for clinical stability was determined by a combination of retrospective data (over the 4 months prior to the start of Screening, which will be supported by clinical records, patient, identified responsible contact person, and physician interviews), and prospective data assessed during the Prospective Stabilization Period of 28 to 42 days duration.
The study was a Phase 2, multi-center, randomized, double-blind, placebo-controlled, parallel group study designed to evaluate the safety and efficacy of doses of (4s)-4-(5-phenyl-1,3,4-thiadiazol-2-yloxy)-1-azatricyclo[3.3.1.1^3,7]decane, which is also recognized as Compound A, in treating cognitive deficits in subjects with schizophrenia who were clinically stable and receiving one or two atypical antipsychotic medications. Study drug was administered orally.
The study consisted of a screening period of at least 28 and up to 42 days, a 84-day outpatient treatment period, a 14-day post-treatment period, and a post-treatment follow-up period. The screening period consisted of three visits: Screening Visit 1, Screening Visit 2, and Day −1. Upon completion of Day −1 procedures, eligible subjects were randomized through an Interactive Voice Response/Interactive Web-Based (IVR/IWB) system. Subjects were randomized in an equal ratio to one of three treatment groups (placebo, 10 mg Compound A, or 25 mg Compound A).
(§2) The primary endpoint was the MCCB composite score, and the primary endpoint analysis was the change on the MCCB composite score from baseline to endpoint versus placebo. Other secondary measures included the MCCB domains, the NSA-16, the CANTAB cognition battery (measured at different time points from the MCCB), and the UPSA-2. The Positive and Negative Syndrome Scale (PANSS) was included to document stability in schizophrenia symptomatology.
The UCSD Performance-Based Skills Assessment-2 (UPSA-2) is a role-play test designed for subjects with schizophrenia to evaluate cognitive functional capacity in six selected domains of basic living skills. These areas include Organization/Planning, Financial Skills, Communication, Transportation, Household Management, and Medication Management. […] Scores were obtained for each subtest, and the total score was the sum of these subtests. […] The UPSA-2 required an average of 30 minutes to administer. The UPSA-2 was administered in on Days 14, 28, 56, 84 and 98.

[2] = system: subjects with schizophrenia who were not current smokers; test: MCCB composite score in non-smokers by COMT SNP, Clinical Study A; conditions: for MCCB composite score, change score: subjects who were not current smokers; for MCCB Change from Baseline to Final Mean(SD) / MCCB Between-group Difference (Pooled SD) / MCCB Effect Size (Raw mean): non-smokers; for treatment effect on MCCB: nonsmokers
Experimental: Analysis of the data by cigarette smoking status (current smoker or current nonsmoker) indicated a significant […] interaction (p=0.015).
A blood sample for genotyping was collected from each subject who consented. Genomic DNA was isolated from whole blood using the FlexiGene DNA AGF3000 kit (Qiagen, Valencia, Calif.), on an AutogenFlex 3000 (AutoGen, Holliston, Mass.). Genotypes were determined using the Pyrosequencing detection method (USA—Qiagen, Inc., Valencia, Calif.). Individuals performing the genotyping were blinded to clinical trial data. The significance of the minor allele against the major allele is shown in column marked “Treatment genotype p-value” (Tables 6 and 7).
A similar dose-response trend was observed across the four COMT SNPs in the population of nonsmokers as well (data not shown).

[3] = system: clinically stable subjects with schizophrenia; test: MATRICS Consensus Cognitive Battery (MCCB), Phase 2a Clinical Study A, ITT; conditions: 25 mg QD, Change to Week 12
Source text: as §1, with “Psychiatric diagnoses were confirmed using the Mini-International Neuropsychiatric Interview (MINI) version 6.0.0.” left out, “duration. […]” for “duration.”
as §2, with “The Positive and Negative Syndrome Scale (PANSS) was included to document stability in schizophrenia symptomatology.” left out

[4] = system: clinically stable subjects with schizophrenia; test: CANTAB cognition battery, Clinical Study A; conditions: 10 mg and 25 mg dose groups
Source text: as §2
The Cambridge Neuropsychological Test Automated Battery (CANTAB) is a computer-based cognitive assessment system consisting of a battery of neuropsychological tests, administered to subjects using a touch screen computer. […] The CANTAB computerized system will be employed to explore the effects of Compound A on cognition. The tests assess the following cognitive domains: executive function, spatial memory, attention and episodic memory. The CANTAB battery took approximately 40 minutes to administer and was given on Days 14, 28, 56, 84 and 98.

[5] = RS4633 C/C (major allele), 25 mg vs placebo
[6] = RS4633 T/T or C/T (minor allele), 10 mg vs placebo
[7] = RS4633 T/T or C/T (minor allele), 25 mg vs placebo
[8] = RS4680 A/A or G/A (minor allele), 10 mg vs placebo
[9] = RS4680 A/A or G/A (minor allele), 25 mg vs placebo
[10] = RS4680 G/G (major allele), 25 mg vs placebo
[11] = RS4818 C/C (major allele), 25 mg vs placebo
[12] = RS4818 G/C or G/G (minor allele), 10 mg vs placebo
[13] = RS4818 G/C or G/G (minor allele), 25 mg vs placebo
[14] = RS6269 A/A (major allele), 25 mg vs placebo
[15] = RS6269 G/G or A/G (minor allele), 10 mg vs placebo
[16] = RS6269 G/G or A/G (minor allele), 25 mg vs placebo

## c1ccc(-c2nnc(O[C@@H]3C4CC5C[C@H]3C[N@](C5)C4)s2)cc1 [Compound A, (4s)-4-(5-phenyl-1,3,4-thiadiazol-2-yloxy)-1-azatricyclo[3.3.1.1^3,7]decane]
[1]; 10 mg, P=0.094
  UPSA-2 medication management subscale score: statistically significant improvement or statistical trend for improvement
[1]; 10 mg, P=0.096
  UPSA-2 household skills subscale score: statistically significant improvement or statistical trend for improvement
[1]; 10 mg, P=0.102
  UPSA-2 comprehension/planning subscale score: statistically significant improvement or statistical trend for improvement
[1]; 25 mg, P=0.005
  UPSA-2 comprehension/planning subscale score: statistically significant improvement or statistical trend for improvement
[1]; either dose group (10 mg, 25 mg)
  UPSA-2 composite score, significance versus placebo: No significance
[2]; 10 mg, p=0.021
  MCCB composite score, change score: +2.1
[2]; 25 mg, p=0.001
  MCCB composite score, change score: +4.5
[2]; RS4633 C/C (major allele), 25 mg
  MCCB Change from Baseline to Final Mean(SD): 7.4(6.1)
[2]; [5]
  MCCB Between-group Difference (Pooled SD): 8.4(5.1)
  MCCB Effect Size (Raw mean): 1.65
[2]; RS4633 T/T or C/T (minor allele), 10 mg
  MCCB Change from Baseline to Final Mean(SD): 2.4(7.3)
[2]; [6]
  MCCB Between-group Difference (Pooled SD): 2.7(6.1)
  MCCB Effect Size (Raw mean): 0.44
[2]; RS4633 T/T or C/T (minor allele), 25 mg
  MCCB Change from Baseline to Final Mean(SD): 2.4(5.4)
[2]; [7]
  MCCB Between-group Difference (Pooled SD): 2.7(4.9)
  MCCB Effect Size (Raw mean): 0.55
[2]; RS4680 A/A or G/A (minor allele), 10 mg
  MCCB Change from Baseline to Final Mean(SD): 2.2(7.5)
[2]; [8]
  MCCB Between-group Difference (Pooled SD): 2.4(6.4)
  MCCB Effect Size (Raw mean): 0.38
[2]; RS4680 A/A or G/A (minor allele), 25 mg
  MCCB Change from Baseline to Final Mean(SD): 2.4(5.4)
[2]; [9]
  MCCB Between-group Difference (Pooled SD): 2.6(4.7)
  MCCB Effect Size (Raw mean): 0.55
[2]; RS4680 G/G (major allele), 25 mg
  MCCB Change from Baseline to Final Mean(SD): 7.4(6.1)
[2]; [10]
  MCCB Between-group Difference (Pooled SD): 8.4(5.1)
  MCCB Effect Size (Raw mean): 1.65
[2]; RS4818 C/C (major allele), 25 mg
  MCCB Change from Baseline to Final Mean(SD): 1.3(6.7)
[2]; [11]
  MCCB Between-group Difference (Pooled SD): 1.8(5.3)
  MCCB Effect Size (Raw mean): 0.34
[2]; RS4818 G/C or G/G (minor allele), 10 mg
  MCCB Change from Baseline to Final Mean(SD): 1.2(3.8)
[2]; [12]
  MCCB Between-group Difference (Pooled SD): 1.8(3.9)
  MCCB Effect Size (Raw mean): 0.46
[2]; RS4818 G/C or G/G (minor allele), 25 mg
  MCCB Change from Baseline to Final Mean(SD): 5.8(5.3)
[2]; [13]
  MCCB Between-group Difference (Pooled SD): 6.4(4.8)
  MCCB Effect Size (Raw mean): 1.33
[2]; RS6269 A/A (major allele), 25 mg
  MCCB Change from Baseline to Final Mean(SD): 1.9(6.3)
[2]; [14]
  MCCB Between-group Difference (Pooled SD): 2.2(4.9)
  MCCB Effect Size (Raw mean): 0.45
[2]; RS6269 G/G or A/G (minor allele), 10 mg
  MCCB Change from Baseline to Final Mean(SD): 1.0(3.5)
[2]; [15]
  MCCB Between-group Difference (Pooled SD): 1.9(3.9)
  MCCB Effect Size (Raw mean): 0.49
[2]; RS6269 G/G or A/G (minor allele), 25 mg
  MCCB Change from Baseline to Final Mean(SD): 5.9(5.6)
[2]; [16]
  MCCB Between-group Difference (Pooled SD): 6.8(5.2)
  MCCB Effect Size (Raw mean): 1.31
[2]; minor allele of the four COMT SNPs
  treatment effect on MCCB: highly robust
[2]; subjects containing the major allele
  treatment effect on MCCB: meaningful effect
[3]
  MCCB Verbal Learning, Observed Mean (SD) change from baseline: 2.24 (8.03) T-score
[4]
  results on the CANTAB battery relative to MCCB results: consistent
